The text below walks through data of patent US8513286B2, “Iminipyridine derivatives and their uses as microbiocides” (Syngenta Crop Protection LLC, priority 2007, dated 2013).

What all share (assay type): in vivo
Test [1] has as its system Erysiphe graminis f.sp. hordei. Put plainly: Erysiphe graminis f.sp. hordei, powdery mildew of barley, curative test on barley leaf segments. The settings on record: Blumeria graminis, foliar, 168 h; application rate 200 ppm; barley leaf segments sprayed 24 h after inoculation; assessed 7 days after inoculation; 0=no control, 100%=complete control; read-out: curative fungicidal activity, percent efficacy relative to untreated infected control. The method, then: Erysiphe graminis f.sp. hordei: Powdery Mildew of Barley, Curative Test Erysiphe graminis f.sp. hordei (Barley powdery mildew): Barley leaf segments are placed on agar in multiwell plates (24-well format). The leaf disks are inoculated with spores of the fungus (120 conidia/mm2). After 24 h the leaf disks are sprayed with the formulated (2% Dimethylsulfoxid, 0,025% Tween 20) test solutions. After appropriate incubation, the curative fungicidal activity of a compound is assessed 7 days after inoculation as disease damage on the leaf disks and calculated as percent efficacy relative to untreated infected control (0=no control of Erysiphe graminis f.sp. hordei, 100%=complete control). In this test, compounds listed in Table P above show good activity.

The subject of test [2] is Erysiphe graminis f.sp. tritici. The experiment in a line: Erysiphe graminis f.sp. tritici, wheat powdery mildew, preventative test on wheat leaf segments. The settings on record: Blumeria graminis, foliar, 168 h, application rate 200 ppm, assessed 7 days after inoculation, 0=no control, 100%=complete control, read-out: preventive fungicidal activity, percent efficacy relative to untreated infected control. As for the experimental part:
Erysiphe graminis f.sp. tritici: Wheat Powdery Mildew, Preventative Test Erysiphe graminis f.sp. tritici (Wheat powdery mildew): Wheat leaf segments are placed on agar in multiwell plates (24-well format) and sprayed with the formulated (2% Dimethylsulfoxid, 0,025% Tween 20) test solutions. After drying, the leaf disks are inoculated with spores of the fungus (50 conidia/mm2). After appropriate incubation, the preventive fungicidal activity of a compound is assessed 7 days after inoculation as disease damage on the leaf disks and calculated as percent efficacy relative to untreated infected control. (0=no control of Erysiphe graminis f.sp. tritici, 100%=complete control). In this test, compounds listed in Table P above show good activity.

Test [3] concerns Puccinia recondita. The experiment in a line: Puccinia recondita, brown rust of wheat, curative test on wheat leaf segments. The settings on record: foliar, 192 h, application rate 200 ppm, wheat leaf segments treated one day after inoculation, assessed 8 days after inoculation, 0=no control, 100%=complete control, read-out: curative fungicidal activity, percent efficacy relative to untreated infected control.

In test [4] the test system is Puccinia recondita. Put plainly: Puccinia recondita, brown rust of wheat, preventative test on wheat leaf segments. Conditions: foliar, 192 h, application rate 200 ppm, assessed 8 days after inoculation, 0=no control, 100%=complete control, read-out: preventive fungicidal activity, percent efficacy relative to untreated infected control. The method, then: (§1) Puccinia recondite: Brown Rust of Wheat, Preventative Test Puccinia recondita (Brown rust): Wheat leaf segments are placed on agar in multiwell plates (24-well format) and sprayed with the formulated (2% Dimethylsulfoxid, 0,025% Tween 20) test solutions. After drying, the leaf disks are inoculated with a spore suspension of the fungus (45'000 conidia/ml). After appropriate incubation, the preventive fungicidal activity of a compound is assessed 8 days after inoculation as disease damage on the leaf disks and calculated as percent efficacy relative to untreated infected control (0=no control of Puccinia recondita, 100%=complete control). In this test, compounds listed in Table P above show good activity.

In test [5] the test system is Pyrenophora teres. Put plainly: Pyrenophora teres, net blotch of barley, preventative test on barley leaf segments. The settings on record: foliar, 96 h, application rate 200 ppm, assessed 4 days after inoculation, 0=no control, 100%=complete control, read-out: preventive fungicidal activity, percent efficacy relative to untreated infected control. The method, then:
as §1, with “Pyrenophora teres: Net Blotch” for “Puccinia recondite: Brown Rust”, “Barley,” for “Wheat,”, “Method Description Pyrenophora teres (Net blotch): Barley” for “Puccinia recondita (Brown rust): Wheat”, “(25'000” for “(45'000”, “4” for “8”, “Pyrenophora teres,” for “Puccinia recondita,”

In test [6] the test system is Plasmopara viticola. Put plainly: Plasmopara viticola, downy mildew of grapevine, preventative test on grape vine leaf disks. The settings on record: application rate 200 ppm, assessed 6 days after inoculation, 0=no control, 100%=complete control. The method, then:
Plasmopara viticola: Downy Mildew of Grapevine, Preventative Test Plasmopara viticola (downy mildew of grapevine): Grape vine leaf disks are placed on agar in multiwell plates (24-well format) and sprayed with the formulated (2% Dimethylsulfoxid, 0,025% Tween 20) test solutions. After drying, the leaf disks are inoculated with a spore suspension of the fungus (80′000 conidia/ml). After appropriate incubation, the preventive fungicidal activity of a compound is assessed 6 days after inoculation as disease damage on the leaf disks and calculated as percent efficacy relative to untreated infected control. (0=no control of Plasmopara viticola, 100%=complete control). In this test, compounds listed in Table P above show good activity.

As to `CCN(C)/C=N/c1cnc(Oc2ccc(Cl)c(C(F)(F)F)c2)c(C)c1` [P.19], the pest or weed control at 200 ppm in test [1] was no less than 50%.

As to `CN(C)/C=N/c1ccc(Oc2ccc(Cl)cc2)nc1` [P.22], in test [2], the pest or weed control at 200 ppm is no less than 50%.

`CCN(C)/C=N/c1cc(Br)c(OCCCC(C)C)nc1OC` [P.61]: the pest or weed control at 200 ppm in test [3], in test [2] and in test [4] was no less than 50% in each case.

Turning to `CCN(C)/C=N/c1cnc(Oc2cccc(C(C)(C)C)c2)c(C)c1` [P.17], the pest or weed control at 200 ppm in test [1] was no less than 50%.

As for `CC(C)c1cc(Oc2ccc(Cl)c(Cl)c2)nc(C(C)C)c1/N=C/N(C)C` [P.05], the pest or weed control at 200 ppm in test [5] is no less than 50%.

Take `CCN/C=N/c1cnc(Oc2ccc(Cl)c(C(F)(F)F)c2)c(C)c1` [P.08]: the pest or weed control at 200 ppm in test [5] and in test [1] was no less than 50% throughout.

Take `CCN(C)/C=N/c1cc(Cl)c(OCCCC(C)C)nc1C` [P.46]: the pest or weed control at 200 ppm in test [5] is no less than 50%.

As for `Cc1cc(Oc2ccc(Cl)c(C(F)(F)F)c2)ncc1/N=C/N(C)C` [P.06], the pest or weed control at 200 ppm in test [1] was no less than 50%.

Turning to `CCN(C)/C=N/c1ccc(Oc2ccc(Cl)c(C(F)(F)F)c2)nc1C` [P.07], the pest or weed control at 200 ppm in test [2], in test [4] and in test [1] was no less than 50% each time.

As to `CCN(C)/C=N/c1cc(Cl)c(OCCCC(C)C)nc1C#N` [P.81], the pest or weed control at 200 ppm in test [3] was no less than 50%.

As for `CCN(C)/C=N/c1cc(Cl)c(OCCCC(C)C)nc1Br` [P.64], the pest or weed control at 200 ppm in test [3], in test [2], in test [4] and in test [5] was no less than 50% throughout.

Consider `CCN(C)/C=N/c1ccc(OCCCC(C)C)nc1OC` [P.58], for which the pest or weed control at 200 ppm in test [3] and in test [4] was no less than 50% in each case.

For the molecule `CCN(C)/C=N/c1cc(C#C[Si](C)(C)C)c(Oc2ccc(Cl)c(C(F)(F)F)c2)nc1C` [P.31], the pest or weed control at 200 ppm in test [3] and in test [4] was no less than 50% each time.

Turning to `CN(C)/C=N/c1ccc(Oc2ncc(C(F)(F)F)cc2Cl)nc1` [P.15], in test [1], the pest or weed control at 200 ppm is no less than 50%.

As to `C#CC(C)N(C)/C=N/c1cnc(Oc2ccc(Cl)c(C(F)(F)F)c2)c(C)c1` (centres unmarked) [P.10], the “preventive fungicidal activity, percent efficacy relative to untreated infected control” value in test [6] is given as “at least 50%”.

In the case of `CCN(C)/C=N/c1cc(Br)c(Oc2cccc3ccccc23)nc1C` [P.76], the pest or weed control at 200 ppm in test [3], in test [2] and in test [4] was no less than 50% each time.

`COc1ccc(Oc2ccc(/N=C/N(C)C)cn2)cc1` [P.21]: the pest or weed control at 200 ppm in test [2] is no less than 50%.

For the molecule `CCN(C)/C=N/c1cnc(Oc2cccc(C(F)(F)F)c2)cc1C` [P.36], in test [3], the pest or weed control at 200 ppm is no less than 50%.

As to `CCN(C)/C=N/c1cc(Br)c(OC2CCc3ccccc3C2)nc1C` (centres unmarked) [P.62], the pest or weed control at 200 ppm in test [3], in test [2], in test [4] and in test [5] was no less than 50% throughout.

For the molecule `CCN(C)/C=N/c1cnc(Oc2ccc(Cl)c(C(F)(F)F)c2)cc1C` [P.11], the pest or weed control at 200 ppm in test [4] and in test [1] was no less than 50% throughout.

Turning to `CCN(C)/C=N/c1cc(OC)c(OCCCC(C)C)nc1Cl` [P.73], the pest or weed control at 200 ppm in test [3], in test [2], in test [4] and in test [5] was no less than 50% in each case.

Turning to `CCN(C)/C=N/c1cc(Cl)c(OCCCC(C)C)nc1OC` [P.59], the pest or weed control at 200 ppm in test [3], in test [2] and in test [4] was no less than 50% in each case.

As to `CCN(C)/C=N/c1ccc(Oc2ccc(Cl)cc2Cl)nc1` [P.01], the pest or weed control at 200 ppm in test [1] was no less than 50%.

Regarding `CCN(C)/C=N/c1cc(Br)c(Oc2ccc3ncc(Br)cc3c2)nc1C` [P.78], in test [2], the pest or weed control at 200 ppm was no less than 50%.

Turning to `CCN(C)/C=N/c1cnc(Oc2cccc(C(F)(F)F)c2)c(Br)c1C` [P.51], the pest or weed control at 200 ppm in test [4] was no less than 50%.

`CCN(C)/C=N/c1cc(C#N)c(Oc2cc(F)cc(F)c2)nc1C` [P.41]: the pest or weed control at 200 ppm in test [3] was no less than 50%.

`Cc1nc(OCCCC(C)C)c(Br)cc1NC(=S)N(C)C(C)C` [P.35]: the pest or weed control at 200 ppm in test [3], in test [2] and in test [4] was no less than 50% in each case.

On to `CN(C)/C=N/c1ccc(Oc2ccc(Cl)cc2Cl)nc1` [P.03], for which the pest or weed control at 200 ppm in test [1] was no less than 50%.

Turning to `CCN(C)/C=N/c1cc(OC)c(Oc2ccc(Cl)c(C(F)(F)F)c2)nc1Cl` [P.63], the pest or weed control at 200 ppm in test [2] is no less than 50%.

Take `CCN(C)/C=N/c1cc(Br)c(OCCCC(C)C)nc1C` [P.26]: the pest or weed control at 200 ppm in test [3], in test [2] and in test [4] was no less than 50% each time.

`CCN(C)/C=N/c1ccc(OCCCC(C)C)nc1C` [P.28]: the pest or weed control at 200 ppm in test [3], in test [2] and in test [4] was no less than 50% throughout.

Regarding `CCN(C)/C=N/c1cc(Br)c(Oc2cc(Cl)c3ncc(Br)cc3c2)nc1C` [P.79], the pest or weed control at 200 ppm in test [4] was no less than 50%.

For `CCN(C)/C=N/c1cc(OC)c(Oc2ccc(Cl)c(C(F)(F)F)c2)nc1Br` [P.68], the pest or weed control at 200 ppm in test [2] is no less than 50%.

With `CCN(C)/C=N/c1cc(Br)c(OC2CCc3cc(OC)ccc3C2)nc1C` (centres unmarked) [P.82], the pest or weed control at 200 ppm in test [3], in test [2] and in test [4] was no less than 50% in each case.

Turning to `CCN(C)/C=N/c1cc(Br)c(OCCCC(C)C)nc1Br` [P.69], the pest or weed control at 200 ppm in test [3], in test [2] and in test [5] was no less than 50% throughout.

As for `CCN(C)/C=N/c1cc(OC)c(OCCCC(C)C)nc1Br` [P.70], the pest or weed control at 200 ppm in test [3] and in test [4] was no less than 50% throughout.

In the case of `Cc1cc(/N=C/N(C)C)cnc1Oc1cccc(C(C)(C)C)c1` [P.14], the pest or weed control at 200 ppm in test [1] is no less than 50%.

For `Cc1cc(/N=C/N(C)c2ccccn2)cnc1Oc1ccc(Cl)c(C(F)(F)F)c1` [P.16], in test [1], the pest or weed control at 200 ppm is no less than 50%.

With `CCN(C)/C=N/c1cc(-c2ccc(F)cc2)c(Oc2ccc(Cl)c(C(F)(F)F)c2)nc1C` [P.30], the pest or weed control at 200 ppm in test [2] was no less than 50%.

Regarding `CCN(C)/C=N/c1cc(Br)c(Oc2ccc3ccccc3c2)nc1C` [P.77], the pest or weed control at 200 ppm in test [3], in test [2] and in test [4] was no less than 50% each time.

For the molecule `C#CC(C)N(C)/C=N/c1ccc(Oc2ccc(Cl)cc2Cl)nc1` (centres unmarked) [P.04], in test [1], the pest or weed control at 200 ppm is no less than 50%.

Turning to `Cc1cc(/N=C/N(C)C)cnc1Oc1ccc(Cl)c(C(F)(F)F)c1` [P.09], the pest or weed control at 200 ppm in test [2] and in test [5] was no less than 50% each time.
